One block for each molecule: values may come before it.
Tests used:
[1] = biological target: T1, DCMTase (Mus musculus, UniProt P13864); assay: Steady-state kinetic assays (methyl transfer from tritiated AdoMet to DNA); assay type: biochemical; parameters: key: C, competitive; NC, noncompetitive; UC, uncompetitive inhibition; conditions: product inhibition
T1 construct: a highly homogeneous, unproteolyzed preparation of DCMTase from mouse erythroleukemia cells (MEL); endogenous in cells; host or cells: mouse erythroleukemia (MEL) cells; endogenous enzyme purified per Xu et al. 1995
Description: Single-stranded DNA was heated to 90 °C and quick cooled on ice, prior to initiation of the reaction. Freeze-thawed DNA produced equivalent results. Incubations were at 37 °C for 60 minutes. […] The reaction was stopped after 60 minutes by transferring 20 μL of the reaction onto a DE 81 filter paper that was processed as described (Flynn et al., 1996). The radioactivity above the background, determined from assays without added poly(dI·dC:dI·dC), was converted to initial velocities and expressed as picomoles of methyl groups transferred to poly(dI·dC:dI·dC) per hour and plotted in double reciprocal form. […] Incubations were at 37 °C for 60 minutes. […] The GC-box b concentrations were: diamonds, 0; circles, 0.75 μM; triangles, 1.5 μM; squares, 5.0 μM. Incubations were at 37 °C for 60 minutes. […] Incubations were at 37 °C for 60 minutes. […] Incubations were at 37 °C for 60 minutes. […] The AdoHcy concentrations were: squares, 0; diamonds, 0.75 μM; circles, 1.5 μM; triangles, 3.0 μM; notched squares, 6.0 μM. Incubations were at 37 °C for 60 minutes. […] Incubations were at 37 °C for 60 minutes. […] The AdoHcy concentrations were: squares, 0; diamonds, 15 μM; circles, 30 μM. […] The standard errors associated with fitted parameters and graphical analysis of the experimental data scattered around the calculated best fit lines were also considered in making an assignment.

[2] = substrate: C[S+](CC[C@H](N)C(=O)O)C[C@H]1O[C@@H](n2cnc3c(N)ncnc32)[C@H](O)[C@@H]1O; assay: purified protein, by the assay type; conditions: other: true Michaelis constant, equation 2 (sequential mechanism); 20 nM DCMTase; pH 8.0

- Type of Inhibition ([1]; varied substrate AdoMet, fixed substrate IC): C
- Type of Inhibition ([1]; varied substrate IC, fixed substrate AdoMet): NC/UC
Molecule: Nc1ncnc2c1ncn2[C@@H]1O[C@H](CSCC[C@H](N)C(=O)O)[C@@H](O)[C@H]1O [AdoHcy, S-adenosyl-L-homocysteine]

B1: DCMTase (Mus musculus) (protein)
chain: MPARTAPARVPALASPAGSLPDHVRRRLKDLERDGLTEKECVREKLNLLHEFLQTEIKSQLCDLETKLHKEELSEEGYLAKVKSLLNKDLSLENGTHTLTQKANGCPANGSRPTWRAEMADSNRSPRSRPKPRGPRRSKSDSDTLSVETSPSSVATRRTTRQTTITAHFTKGPTKRKPKEESEEGNSAESAAEERDQDKKRRVVDTESGAAAAVEKLEEVTAGTQLGPEEPCEQEDDNRSLRRHTRELSLRRKSKEDPDREARPETHLDEDEDGKKDKRSSRPRSQPRDPAAKRRPKEAEPEQVAPETPEDRDEDEREEKRRKTTRKKLESHTVPVQSRSERKAAQSKSVIPKINSPKCPECGQHLDDPNLKYQQHPEDAVDEPQMLTSEKLSIYDSTSTWFDTYEDSPMHRFTSFSVYCSRGHLCPVDTGLIEKNVELYFSGCAKAIHDENPSMEGGINGKNLGPINQWWLSGFDGGEKVLIGFSTAFAEYILMEPSKEYEPIFGLMQEKIYISKIVVEFLQNNPDAVYEDLINKIETTVPPSTINVNRFTEDSLLRHAQFVVSQVESYDEAKDDDETPIFLSPCMRALIHLAGVSLGQRRATRRVMGATKEKDKAPTKATTTKLVYQIFDTFFSEQIEKYDKEDKENAMKRRRCGVCEVCQQPECGKCKACKDMVKFGGTGRSKQACLKRRCPNLAVKEADDDEEADDDVSEMPSPKKLHQGKKKKQNKDRISWLGQPMKIEENRTYYQKVSIDEEMLEVGDCVSVIPDDSSKPLYLARVTALWEDKNGQMMFHAHWFCAGTDTVLGATSDPLELFLVGECENMQLSYIHSKVKVIYKAPSENWAMEGGTDPETTLPGAEDGKTYFFQLWYNQEYARFESPPKTQPTEDNKHKFCLSCIRLAELRQKEMPKVLEQIEEVDGRVYCSSITKNGVVYRLGDSVYLPPEAFTFNIKVASPVKRPKKDPVNETLYPEHYRKYSDYIKGSNLDAPEPYRIGRIKEIHCGKKKGKVNEADIKLRLYKFYRPENTHRSYNGSYHTDINMLYWSDEEAVVNFSDVQGRCTVEYGEDLLESIQDYSQGGPDRFYFLEAYNSKTKNFEDPPNHARSPGNKGKGKGKGKGKGKHQVSEPKEPEAAIKLPKLRTLDVFSGCGGLSEGFHQAGISETLWAIEMWDPAAQAFRLNNPGTTVFTEDCNVLLKLVMAGEVTNSLGQRLPQKGDVEMLCGGPPCQGFSGMNRFNSRTYSKFKNSLVVSFLSYCDYYRPRFFLLENVRNFVSYRRSMVLKLTLRCLVRMGYQCTFGVLQAGQYGVAQTRRRAIILAAAPGEKLPLFPEPLHVFAPRACQLSVVVDDKKFVSNITRLSSGPFRTITVRDTMSDLPEIQNGASNSEIPYNGEPLSWFQRQLRGSHYQPILRDHICKDMSPLVAARMRHIPLFPGSDWRDLPNIQVRLGDGVIAHKLQYTFHDVKNGYSSTGALRGVCSCAEGKACDPESRQFSTLIPWCLPHTGNRHNHWAGLYGRLEWDGFFSTTVTNPEPMGKQGRVLHPEQHRVVSVRECARSQGFPDSYRFFGNILDRHRQVGNAVPPPLAKAIGLEIKLCLLSSARESASAAVKAKEEAATKD
- Km [2]: 1.4 ± 0.2 µM

— patent EP1018003B1, “MODULATORS OF DNA CYTOSINE-5 METHYLTRANSFERASE AND METHODS FOR USE THEREOF” (The Regents of the University of California, priority 1997, dated 1999)
